The values below come from patent US6906078B2, “Method of using (H+/K+) ATPase inhibitors as antiviral agents” (Pharmacia Corporation, priority 1994, dated 2005).

One assay relates to HCMV (strain AD169). Nature of the assay: Antiviral assay: HCMV antigen ELISA in infected human foreskin fibroblasts (MRHF). The class given is cell-based, human cytomegalovirus. Particulars: Human betaherpesvirus 5, Fibroblast; MRHF cells, HCMV AD169, moi 0.2, 96 hours; read-out: HCMV cell EC50. From the text: These complimentary assays tested the ability of a compound to inhibit the production of new virus and the toxicity of the compound to the host cells. It was important that both assays be performed simultaneously in order to compare the results directly since, toxicity may indirectly reduce viral yield.
Viral yield was estimated by measuring the amount of a viral antigen produced 4 days post infection with a monoclonal antibody to an abundant “immediate early” viral protein. An enzyme-linked (horseradish peroxidase) secondary antibody specific to the primary (mouse) antibody was used to measure the amount of viral antigen. Test compounds were diluted to 2-times the desired final concentration in DMEM+5% FBS. One hundred microliters of this solution was placed in each well of a 96-well plate. This was performed once for the antiviral 96-well plate and again for a cytotoxicity plate. Two controls were also included for both plates; a no drug control and a ganciclovir control. Ganciclovir was included because it has known antiviral activity for HCMV. All cells were prepared by harvesting human foreskin fibroblasts, MRHF, with trypsin and re-suspending at a concentration of 5×10^5 cells per ml in DMEM. Infected cells were prepared by infecting these with HCMV (strain AD169) at a multiplicity of infection=0.2. One hundred microliters of uninfected cells (5×10^4 cells) were added to the appropriate wells of the cytotoxicity plate. In a similar manner 100 μl of infected cells (5×10^4 cells) were added to the appropriate wells of the antiviral plate. Additionally, uninfected cells not treated with test compound were included as controls on the antiviral plate. Plates were incubated for 96 hours at 37° C. in 5% CO2 atmosphere and processed to measure the amount of viral antigen and toxicity.
The following was performed on the antiviral plate only. Media was removed and cells were fixed with 1:1 acetone:methanol for 15 minutes at −20° C. Fixative was removed and cells were washed once with PBS containing 0.05% Tween20. In order to block nonspecific binding of antibodies each well was incubated with PBS containing 3% (w/v) bovine serum albumin (BSA) for 1 hour at 22° C. The blocking solution was removed and the cells were washed once with PBS containing 0.05% Tween20 before incubating with 1:100 dilution of primary antibody in PBS containing 3% BSA for 2 hours at 22° C. The primary antibody was a monoclonal antibody (mouse source) specific to the immediate early nuclear antigen of HCMV and was commercially available (Dupont). The 10 antibody solution was removed and the plate was rinsed 5 times with PBS containing 1% (v/v) Triton X-100 (PBST) before incubating with secondary antibody diluted 1:1000 in PBS containing 3% BSA for 2 hours at 22° C. The secondary antibody (goat source) recognized the murine-specific determinants of the 1° antibody and was covalently linked to horseradish peroxidase (Sigma). The plate was rinsed 5 times with PBST and once with deionized water before adding 100 μl TMB substrate solution and incubating 30 minutes at 22° C. The reaction was stopped by adding 100 μL of phosphoric acid and the OD at 450 nm recorded. TMB (3,3′,5,5′ tetramethylbenzidine) was the substrate for the horseradish peroxidase linked to the 2° antibody. […] Antiviral activity was calculated by comparing the amount of viral antigen produced in drug treated wells with that produced in wells absent of drug.
In general terms: An ELISA detects its analyte on a solid surface through an enzyme-linked reagent.

In assay [1] the test system is gastric acid secretion. The assay is described as follows: Inhibition of gastric acid secretion in meal-stimulated Pavlov pouch dog. Particulars: 3 mg/kg, four-hour period. The format is in vivo, beagle dogs. On the procedure: Adult female beagle dogs weighing 6 to 10 kilograms were obtained from Laboratory Research Enterprises (Kalamazoo, Mich.) or from Hazelton Research Animals (Cumberland, Va.). Surgical implantation of a Thomas-type gastric cannula into an innervated Pavlov pouch of each dog was performed by the method reported by L. Burrows et al., J. Surgical Res., 4, 147 (1964). After recovery from surgery, the dogs were trained to stand quietly, fully conscious, in Pavlov-type dog restraining slings. All dogs were deprived of food, but not water, for 24 hours prior to each assay. Basal acid secretion was measured by collecting from the cannulas for 30 minutes before dosing with a test compound. Solutions of the test compounds in iso-osmotic phosphate buffer (pH 7.4) were given either intravenously or directly into the Pavlov pouch. After 30 minutes the pouch was drained. The dogs were then fed 320 grams of dog food and gastric acid secretions were collected each half hour for four hours. Controls were determined in the same way except that only food (i.e., no test compound) was administered.
Data were analyzed for three different variables: volume of gastric juice, acid concentration, and total acid output. Percent inhibition for the four-hour experimental period was determined for each parameter by comparison with 3 to 4 controls. Estimates of ED50 were determined from dose response curves.

The test system of assay [2] is gastric acid secretion. The assay is described as follows: Inhibition of gastric acid secretion in gastric fistula beagle dogs (histamine-stimulated). The format is in vivo. Particulars: Canis lupus familiaris, 4 h, histamine-stimulated, four-hour period, read-out: Gastric-Fistula Beagle % Inhibition (3 mg/kg dose). The gist of the method: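 Conscious, 18 h-fasted female beagles with gastric (or duodenal) cannulas received compound i.v., i.g. or i.d. after a 30-min basal period, then 4 h i.v. histamine dihydrochloride at 15 mcg/kg/h. Gastric volume, acid concentration and total acid output collected every 30 min; percent inhibition versus controls, ED50 from dose-response curves.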

As a reminder, the pEC50 is the EC50 on a negative log10 scale, so that one unit is a factor of ten.

pEC50: −log10 of the molar value. Like-named read-outs stand apart in the source and are kept apart here.

Turning to `COc1ccc2[nH]c([S+]([O-])Cc3ncc(C)c(OC)c3C)nc2c1` (stereo not drawn) [omeprazole, reference compound], the pEC50 in the assay with HCMV (strain AD169) was 4.03.

Take `Nc1ccccc1C[S+]([O-])c1nc2cc(Cl)ccc2[nH]1` (stereo not drawn) [Example 43, 2-[[(5-Chloro-1H-benzimidazol-2-yl)sulfinyl]-methyl]benzenamine]: the pEC50 in the assay on HCMV (strain AD169) was 4.64.

For the compound `COc1ccc(N)c(C[S+]([O-])c2nc3ccccc3[nH]2)c1` (stereo not drawn) [Example 20, 2-[(1H-Benzimidazol-2-ylsulfinyl)methyl]-4-methoxybenzenamine], the “Pavlov-Pouch Dog % Inhibition (dose (mg/kg))” value in the assay with gastric acid secretion [1] is listed as 22 (3 mg/kg) %. Moreover, in the assay on gastric acid secretion [2] (iv, 3 mg/kg i.v.), the inhibition in vivo at 3 mg/kg is 37%.

As to `Cc1ccc(C[S+]([O-])c2nc3ccccc3[nH]2)c(N)c1C` (stereo not drawn) [Example 53, 2-[(1H-Benzimidazol-2-ylsulfinyl)methyl]-5,6-dimethylbenzenamine ¼ hydrate], the pEC50 with HCMV (strain AD169) was 4.89. Also, in the assay on gastric acid secretion [2] (intraduodenal, 3 mg/kg i.d.), the inhibition in vivo at 3 mg/kg was 79%.

Consider `Cc1ccc2[nH]c([S+]([O-])Cc3ccccc3N)nc2c1` (stereo not drawn) [Example 41, 2-[[(5-Methyl-1H-benzimidazol-2-yl)sulfinyl]-methyl]benzenamine], for which the pEC50 with HCMV (strain AD169) was 4.23.

For the compound `COc1ccc2[nH]c([S+]([O-])Cc3c(N)cc(C)c(OC)c3C)nc2c1` (stereo not drawn) [Example 78, 2-[[(5-Methoxy-1H-benzimidazol-2-yl)sulfinyl]methyl]-4-methoxy-3,5-dimethylbenzenamine], the pEC50 with HCMV (strain AD169) was 4.66. In the assay on gastric acid secretion [2] (intraduodenal, 3 mg/kg i.d.), the inhibition in vivo at 3 mg/kg was 31%.
